# Results taken from patent US4469701A, “Pyrrolid-3-en-2-ones and pharmaceutical methods of use thereof” (Stauffer Chemical Company, priority 1983, dated 1984).
# Where two headings read alike, the source gives them in different places.
# Tests used:
# mice [1] = assay: Central anticholinergic: oxotremorine tremors in mice; conditions: Mus musculus, ip, 1 h, read-out: ED-100, central anticholinergic
# mice [2] = assay: Acute toxicity / autonomic effects observation; conditions: mouse, in vivo
# Experimental: Mice were dosed at 300 mg/kg, per oral (p.o.) and […], interperitoneal (i.p.) for observation of any acute toxic symptoms or autonomic effects during the subsequent 72 hours. If none were noted, pharmacological evaluation proceeded employing doses and concentrations for each test based on appropriate multiples of doses required by suitable reference compounds. If acute toxicity was observed initially, the minimal toxic dose was determined and pharmacological screening doses were reduced proportionately.
# [3] = test system: hypercholesterolemic mice; assay: Hypocholesterolemic: serum cholesterol in hypercholesterolemic mice; assay type: in vivo, mouse; conditions: Mus musculus, hypercholesterolemic mice; for inhibition in vivo at 200 mg/kg: 2 oral doses of 200 mg/kg 20 hr. apart, significance >20, read-out: C = Hypocholesterolemic: percent decrease in serum cholesterol
# Experimental: Mice made hypercholesterolemic by being fed a high cholesterol-cholic acid diet for 7 days were dosed on the sixth and seventh days, p.o. After fasting overnight, reduction in serum cholesterol concentration by more than 15% (>15) from hypercholesterolemic control mice indicates activity.
# ^4 C = Hypocholesterolemic. Percent decrease in serum cholesterol in
# hypercholesterolemic mice given 2 oral doses of 200 mg/kg drug candidate
# rats [4] = assay: Bradycardia: heart rate by EKG in rats; assay type: in vivo, rat; conditions: for inhibition in vivo at 5 mg/kg / ED100: Rattus norvegicus; for inhibition in vivo at 5 mg/kg: 0.75 h, 45 min. after a 5 mg/kg oral dose in rats, significance >10, read-out: B = Bradycardiac: percent decrease in heart rate; for ED100: po, rats, reference compounds, read-out: ED-100, bradycardia
# Experimental: […] Decrease in heart rate by more than 10% (>10) is considered a bradycardic effect.
# Percent decrease in heart rate 45 min. after a 5
# mg/kg oral dose in rats.
# mice [5] = assay: Antiarrhythmic: chloroform-induced cardiac arrhythmia in mice; assay type: in vivo, mouse; conditions: for A = Antiarrythmic: mouse hearts fibrillating (of 3): 15 min. after a 200 mg/kg intraperitoneal dose, significance <2; for ED100: Mus musculus, ip, read-out: ED-100, antiarrhythmic
# Experimental: ^2 A = Antiarrythmic. Less than 2/3 mouse hearts fibrillating 15 min.
# rats [6] = assay: Antiulcer: stress induced gastric ulcers in rats; assay type: in vivo, rat; conditions: for inhibition in vivo at 50 mg/kg / ED100: Rattus norvegicus; for inhibition in vivo at 50 mg/kg: 4 hr. following a 50 mg/kg oral dose in rats, significance >60, read-out: U = Antiulcerative: percent inhibition of stress ulcers; for Antiulcer effect, in words: rat, in vivo; for ED100: po, read-out: ED-100, antiulcer
# Experimental: Fasted rats were dosed, p.o., 30 minutes before immobilization in wire mesh and partial immersion in water for 4 hours. Inhibition of the resulting stress induced gastric ulcers by more than 60% (>60) indicates activity.
# ^6 U = Antiulcerative. Percent inhibition of stress ulcers 4 hr.
# following a 50 mg/kg oral dose in rats.
# [7] = test system: spontaneously hypertensive rats (SHR); assay: Antihypertensive: blood pressure (tail cuff) in spontaneously hypertensive rats (SHR); assay type: in vivo, rat; conditions: for inhibition in vivo at 100 mg/kg / ED100: Rattus norvegicus; for inhibition in vivo at 100 mg/kg: 6 hr. after a 100 mg/kg oral dose, significance >10, read-out: Antihypertensive: percent decrease in systolic blood pressure in spontaneously hypertensive rats; for ED100: po, read-out: ED-100, antihypertensive
# Experimental: Blood pressure was measured indirectly (tail cuff) in unanesthetized, unheated spontaneously hypertensive rats (SHR) before and 2, 4, and 6 hours after p.o. dosing. Reduction in mean pressure by more than 10% (>10) at any two consecutive measurement times after dosing indicates antihypertensive activity.
compound,measurement,setting,value
N[C@@H]1C[C@H]1c1ccccc1 (relative stereo) [tranylcypromine],ED100,mice [1],> 25 mg/kg
"CC1(C)CCCC(C)(C)N1CC1=CC(=O)N(c2cccc(SC(F)(F)F)c2)C1 [Compound 2, N-[3'-trifluoromethylthiophenyl]-4-[2"",2"",6"",6""tetramethylpiperidino]methylpyrrolid-3-en-2-one]",Acute toxicity / toxic effects,mice [2],apparent absence
same,Autonomic effect / autonomic inhibition,mice [2],apparent absence of autonomic effect
same,inhibition in vivo at 200 mg/kg,[3],0%
same,inhibition in vivo at 5 mg/kg,rats [4],6%
same,A = Antiarrythmic: mouse hearts fibrillating (of 3),mice [5],3
same,inhibition in vivo at 50 mg/kg,rats [6],38%
same,inhibition in vivo at 100 mg/kg,[7],14%
CC1(C)CCCC(C)(C)N1CC1=CC(=O)N(c2cc(C(F)(F)F)cc(C(F)(F)F)c2)C1 [Compound 3],Autonomic effect / autonomic inhibition,mice [2],No evidence of autonomic inhibition
same,inhibition in vivo at 200 mg/kg,[3],0%
same,inhibition in vivo at 5 mg/kg,rats [4],14%
same,A = Antiarrythmic: mouse hearts fibrillating (of 3),mice [5],3
same,inhibition in vivo at 50 mg/kg,rats [6],38%
same,inhibition in vivo at 100 mg/kg,[7],32%
same,"Antihypertensive activity, duration",[7]; p.o.,perhaps of long duration
same,"Antihypertensive activity, onset / comparison in words",[7]; p.o.,somewhat slow in onset
same,Dose with borderline antihypertensive result,[7]; p.o.,10 mg/kg
CC1(C)CCCC(C)(C)N1CC1=CC(=O)N(c2ccc(F)cc2)C1 [Compound 5],Autonomic effect / autonomic inhibition,mice [2],absence of evidence of autonomic inhibition
same,inhibition in vivo at 200 mg/kg,[3],0%
same,inhibition in vivo at 5 mg/kg,rats [4],24%
same,A = Antiarrythmic: mouse hearts fibrillating (of 3),mice [5],0
same,"Antiarrhythmic effect, in words","mice [5]; mouse, in vivo",noted at antihypertensive doses
same,inhibition in vivo at 50 mg/kg,rats [6],75%
same,"Antiulcer effect, in words",rats [6],noted at antihypertensive doses
same,inhibition in vivo at 100 mg/kg,[7],26%
same,Dose with borderline antihypertensive result,[7]; p.o.,5 mg/kg
CC1(C)CCCC(C)(C)N1CC1=CC(=O)N(c2cccc([N+](=O)[O-])c2)C1 [Compound 11],Autonomic effect / autonomic inhibition,mice [2],absence
same,inhibition in vivo at 200 mg/kg,[3],0%
same,inhibition in vivo at 5 mg/kg,rats [4],5%
same,"Bradycardic effects, in words","rats [4]; rat, in vivo",absence of bradycardia
same,A = Antiarrythmic: mouse hearts fibrillating (of 3),mice [5],3
same,inhibition in vivo at 50 mg/kg,rats [6],25%
same,inhibition in vivo at 100 mg/kg,[7],27%
same,"Antihypertensive activity, onset / comparison in words",[7]; p.o.,"Mild, rather slow onset"
CC1(C)CCCC(C)(C)N1CC1=CC(=O)N(c2cccc(Br)c2)C1 [Compound 14],inhibition in vivo at 200 mg/kg,[3],5%
same,inhibition in vivo at 5 mg/kg,rats [4],0%
same,A = Antiarrythmic: mouse hearts fibrillating (of 3),mice [5],3
same,inhibition in vivo at 50 mg/kg,rats [6],50%
same,"Antiulcer effect, in words",rats [6],activity appears to be weaker than with Compound 13
same,inhibition in vivo at 100 mg/kg,[7],4%
"C[C@H](CS)C(=O)N1CCC[C@H]1C(=O)O [captopril, reference compound]",ED100,"[7]; SHR, reference compounds",100 mg/kg
"CC1(C)[C@@H](OC(=O)CCC(=O)O)CC[C@]2(C)[C@H]3C(=O)C=C4[C@@H]5C[C@@](C)(C(=O)O)CC[C@]5(C)CC[C@@]4(C)[C@]3(C)CC[C@@H]12 [carbenoxolone, reference compound]",ED100,"rats [6]; rats, reference compounds",> 100 mg/kg
"CNC1=Nc2ccc(Cl)cc2C(c2ccccc2)=[N+]([O-])C1 [chlordiazepoxide, reference compound]",ED100,rats [6],100 mg/kg
"CN(C)CCCN1c2ccccc2Sc2ccc(Cl)cc21 [chlorpromazine, reference compound]",ED100,mice [1],2.5 mg/kg
same,ED100,rats [6],20 mg/kg
"CCOC(=O)C(C)(C)Oc1ccc(Cl)cc1 [clofibrate, reference compound]",ED100,"[3]; po, reference compounds, read-out: ED-100, hypocholesterolemic",400 mg/kg
"Clc1cccc(Cl)c1N=C1NCCN1 [clonidine, reference compound]",ED100,rats [4],0.5 mg/kg
same,ED100,[7],< 5 mg/kg
CNCCCN1c2ccccc2CCc2ccccc21 [desipramine],ED100,mice [1],> 25 mg/kg
"COc1ccc([C@@H]2Sc3ccccc3N(CCN(C)C)C(=O)[C@@H]2OC(C)=O)cc1 [diltiazem, reference compound]",ED100,rats [4],10 mg/kg
same,ED100,"mice [5]; mice, reference compounds",50 mg/kg
"CC(C)N(CCC(C(N)=O)(c1ccccc1)c1ccccn1)C(C)C (stereo not shown) [disopyramide, reference compound]",ED100,"mice [5]; mice, reference compounds",50 mg/kg
O=C(CCCN1CCC(O)(c2ccc(Cl)cc2)CC1)c1ccc(F)cc1 [haloperidol],ED100,mice [1],10 mg/kg
"NNc1nncc2ccccc12 [hydralazine, reference compound]",ED100,[7],2.5 mg/kg
CN(C)CCCN1c2ccccc2CCc2ccccc21 [imipramine],ED100,mice [1],25 mg/kg
"CC(CCc1ccccc1)NCC(O)c1ccc(O)c(C(N)=O)c1 (stereo not shown) [labetalol, reference compound]",ED100,"[7]; SHR, reference compounds",50 mg/kg
"CCN(CC)CC(=O)Nc1c(C)cccc1C [lidocaine, reference compound]",ED100,mice [5],50 mg/kg
"C[C@](N)(Cc1ccc(O)c(O)c1)C(=O)O [methyldopa, reference compound]",ED100,"[7]; SHR, reference compounds",50 mg/kg
CCN(CC)CCNC(=O)c1cc(Cl)c(N)cc1OC [metoclopramide],ED100,mice [1],> 100 mg/kg
"Cc1cccc(C)c1OCC(C)N (stereo not shown) [mexilitine, reference compound]",ED100,"mice [5]; mice, reference compounds",50 mg/kg
"COC(=O)C1=C(C)NC(C)=C(C(=O)OC)C1c1ccccc1[N+](=O)[O-] [nifedipine, reference compound]",ED100,"mice [5]; mice, reference compounds",25 mg/kg
same,ED100,"[7]; SHR, reference compounds",50 mg/kg
"Cc1ccc(N(CC2=NCCN2)c2cccc(O)c2)cc1 [phentolamine, reference compound]",ED100,"[7]; SHR, reference compounds",25 mg/kg
"CC(C)NCC(O)COc1cccc2[nH]ccc12 (stereo not shown) [pindolol, reference compound]",ED100,mice [5],50 mg/kg
"COc1cc2nc(N3CCN(C(=O)c4ccco4)CC3)nc(N)c2cc1OC [prazosin, reference compound]",ED100,"[7]; SHR, reference compounds",1 mg/kg
"CCN(CC)CCOC(=O)c1ccc(N)cc1 [procaine, reference compound]",ED100,mice [5],100 mg/kg
"CC(C)NCC(O)COc1cccc2ccccc12 (stereo not shown) [propranolol, reference compound]",ED100,rats [4],40 mg/kg
same,ED100,mice [5],40 mg/kg
"NC(=S)Cc1ccccn1 [pyridyl-2-thioacetamide, reference compound]","ED-100, antiulcer","rats [6]; p.o., rats, reference compounds",50 mg/kg
"N=C(N)NN=Cc1c(Cl)cccc1Cl [quanabenz, reference compound]",ED100,rats [4],2.5 mg/kg
same,ED100,[7],< 6 mg/kg
"C=CC1CN2CCC1CC2C(O)c1ccnc2ccc(OC)cc12 (stereo not shown) [qunidine, reference compound]",ED100,mice [5],100 mg/kg
"COC(=O)[C@H]1[C@H]2C[C@@H]3c4[nH]c5cc(OC)ccc5c4CCN3C[C@H]2C[C@@H](OC(=O)c2cc(OC)c(OC)c(OC)c2)[C@@H]1OC [reserpine, reference compound]",ED100,rats [4],5 mg/kg
same,ED100,"[7]; SHR, reference compounds",25 mg/kg
CCN1CCCC1CNC(=O)c1cc(S(N)(=O)=O)ccc1OC (stereo not shown) [sulpiride],ED100,mice [1],> 100 mg/kg
CCn1c2c(c3ccccc31)CCSC2(C)CCN(C)C (stereo not shown) [tandamine],ED100,mice [1],> 50 mg/kg
CSc1ccc2c(c1)N(CCC1CCCCN1C)c1ccccc1S2 (stereo not shown) [thioridazine],ED100,mice [1],10 mg/kg
"COc1ccc(CCN(C)CCCC(C#N)(c2ccc(OC)c(OC)c2)C(C)C)cc1OC (stereo not shown) [verapamil, reference compound]",ED100,mice [5],50 mg/kg
"CS(=O)(=O)c1ccc(-c2cn3ccccc3n2)cc1 [zolimidine, reference compound]",ED100,"rats [6]; rats, reference compounds",> 100 mg/kg
